ChEMBL document CHEMBL5143752, “Biological Effects of Modifications of the Englerin A Glycolate” (ACS Med Chem Lett, 2022)
Active and inactive are the calls of the source. No cut-off for these calls is given here.

How the values were obtained:
[1] = tested on: RXF 393; assay: Growth inhibition of human RXF 393 cells assessed as inhibition of cell growth; format: functional
[2] = tested on: A498; assay: Growth inhibition of human A498 cells assessed as cell growth inhibition; format: functional
[3] = tested on: UO-31; assay: Growth inhibition of human UO-31 cells assessed as cell growth inhibition; format: functional
[4] = molecular target: T1, Short transient receptor potential channel 5 (Homo sapiens, UniProt Q9UL62); assay: Agonist activity at human TRPC5 stably expressed in T-REx-293 cells assessed as increase in calcium flux by Fura-2AM dye based fluorescence plate reader assay; format: cell-based
T1 sequence (Q9UL62 whole entry): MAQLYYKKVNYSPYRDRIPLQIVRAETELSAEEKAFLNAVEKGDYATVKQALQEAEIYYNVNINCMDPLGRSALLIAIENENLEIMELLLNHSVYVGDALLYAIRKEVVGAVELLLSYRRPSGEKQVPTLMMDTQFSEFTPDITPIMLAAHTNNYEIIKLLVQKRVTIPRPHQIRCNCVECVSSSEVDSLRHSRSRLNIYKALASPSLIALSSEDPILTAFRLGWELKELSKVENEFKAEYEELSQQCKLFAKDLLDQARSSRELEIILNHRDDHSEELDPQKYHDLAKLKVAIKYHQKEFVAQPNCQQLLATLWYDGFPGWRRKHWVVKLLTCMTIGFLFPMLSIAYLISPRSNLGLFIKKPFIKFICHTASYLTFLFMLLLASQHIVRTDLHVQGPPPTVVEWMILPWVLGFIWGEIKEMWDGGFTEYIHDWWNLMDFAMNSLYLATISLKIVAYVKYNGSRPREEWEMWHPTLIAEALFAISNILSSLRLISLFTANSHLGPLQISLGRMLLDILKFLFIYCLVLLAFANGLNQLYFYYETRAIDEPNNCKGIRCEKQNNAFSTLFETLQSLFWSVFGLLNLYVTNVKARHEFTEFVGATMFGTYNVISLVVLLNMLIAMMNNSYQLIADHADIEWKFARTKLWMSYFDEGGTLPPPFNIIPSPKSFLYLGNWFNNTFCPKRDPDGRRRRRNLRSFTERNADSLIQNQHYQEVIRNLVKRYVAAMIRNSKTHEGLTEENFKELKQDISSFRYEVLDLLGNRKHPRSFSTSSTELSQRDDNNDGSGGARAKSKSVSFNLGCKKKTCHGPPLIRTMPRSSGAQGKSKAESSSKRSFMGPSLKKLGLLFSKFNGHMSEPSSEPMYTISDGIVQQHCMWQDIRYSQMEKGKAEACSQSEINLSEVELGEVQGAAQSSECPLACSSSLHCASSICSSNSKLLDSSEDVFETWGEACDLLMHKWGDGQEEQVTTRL

[5] = Acute toxicity in mouse assessed as maximum tolerated dose measured for 24 hrs; details: in vivo
[6] = molecular target: T2, Short transient receptor potential channel 4 (Homo sapiens) (UniProt Q9UBN4); assay: Agonist activity at human TRPC4 stably expressed in T-REx-293 cells assessed as increase in calcium flux at 10 uM by Fura-2AM dye based fluorescence plate reader assay; format: cell-based; details: filed as agonist
T2 sequence (whole entry): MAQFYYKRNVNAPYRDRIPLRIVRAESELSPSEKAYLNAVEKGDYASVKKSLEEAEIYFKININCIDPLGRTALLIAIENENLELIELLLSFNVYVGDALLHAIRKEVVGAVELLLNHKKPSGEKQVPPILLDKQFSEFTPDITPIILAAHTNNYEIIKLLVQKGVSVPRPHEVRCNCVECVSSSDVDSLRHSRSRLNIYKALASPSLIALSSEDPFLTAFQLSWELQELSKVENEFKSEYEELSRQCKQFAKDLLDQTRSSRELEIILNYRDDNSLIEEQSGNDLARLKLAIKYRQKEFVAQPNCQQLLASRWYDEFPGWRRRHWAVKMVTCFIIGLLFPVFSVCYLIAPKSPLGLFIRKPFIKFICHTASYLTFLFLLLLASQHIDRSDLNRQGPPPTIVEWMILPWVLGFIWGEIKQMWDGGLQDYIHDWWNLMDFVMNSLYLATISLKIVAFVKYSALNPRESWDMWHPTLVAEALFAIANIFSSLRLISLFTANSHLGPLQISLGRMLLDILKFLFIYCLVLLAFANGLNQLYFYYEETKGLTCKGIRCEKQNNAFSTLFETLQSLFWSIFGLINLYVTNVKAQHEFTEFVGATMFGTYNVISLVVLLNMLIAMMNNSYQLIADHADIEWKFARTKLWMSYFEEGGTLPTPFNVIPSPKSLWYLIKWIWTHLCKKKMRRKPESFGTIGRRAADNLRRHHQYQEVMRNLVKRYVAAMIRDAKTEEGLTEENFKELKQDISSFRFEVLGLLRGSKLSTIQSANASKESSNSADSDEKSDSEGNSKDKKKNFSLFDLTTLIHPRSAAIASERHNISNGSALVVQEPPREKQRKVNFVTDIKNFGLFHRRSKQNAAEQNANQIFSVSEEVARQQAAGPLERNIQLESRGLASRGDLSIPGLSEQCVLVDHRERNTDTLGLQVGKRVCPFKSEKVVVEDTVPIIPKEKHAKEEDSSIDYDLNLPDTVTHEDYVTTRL

[7] = Plasma concentration in mouse at 100 mg/kg, po by LC-MS/MS analysis; format: ADME, organism-based; details: in vivo
[8] = molecular target: T2, Short transient receptor potential channel 4 (Homo sapiens); assay: Agonist activity at human TRPC4 stably expressed in T-REx-293 cells assessed as increase in calcium flux at 10 uM by Fura-2AM dye based fluorescence plate reader assay relative to control; format: cell-based
[9] = molecular target: T3, Short transient receptor potential channel 5 (Homo sapiens) (UniProt Q9UL62); assay: Agonist activity at human TRPC5 stably expressed in T-REx-293 cells assessed as increase in calcium flux at 10 uM by Fura-2AM dye based fluorescence plate reader assay; format: cell-based; details: filed as agonist
T3 sequence (whole entry): T1 sequence (Q9UL62 whole entry)

Row | SMILES | GI50 [1] | GI50 [2] | GI50 [3] | EC50 [4] | MTD at 24 h [5] | Activity [6] | Cp [7] | Activity [8] | Activity [9]
1 | CC(C)[C@@]12C[C@@H](OC(=O)[C@@H]3CO3)[C@@](C)(O1)[C@@H]1CC[C@@H](C)[C@H]1[C@@H]2OC(=O)/C=C/c1ccccc1 | 7.9 µM | 2.04 µM | 1.78 µM | – | – | – | – | – | –
2 | CC(C)[C@@]12C[C@@H](OC(=O)COS(C)(=O)=O)[C@@](C)(O1)[C@@H]1CC[C@@H](C)[C@H]1[C@@H]2OC(=O)/C=C/c1ccccc1 | 1.1 µM | 1.3 µM | 1.4 µM | – | – | – | – | – | –
3 | CC(=O)OCC(=O)O[C@@H]1C[C@]2(C(C)C)O[C@@]1(C)[C@@H]1CC[C@@H](C)[C@H]1[C@@H]2OC(=O)/C=C/c1ccccc1 | 0.209 µM | 0.04 µM | 0.034 µM | 0.48 µM | 0.2 mg/kg | Active | – | – | –
4 | CC(C)[C@@]12C[C@@H](OS(C)(=O)=O)[C@@](C)(O1)[C@@H]1CC[C@@H](C)[C@H]1[C@@H]2OC(=O)/C=C/c1ccccc1 | 0.427 µM | 0.145 µM | 0.389 µM | – | – | – | – | – | –
5 | CC(C)[C@@]12C[C@@H](OC(=O)COC(=O)c3ccccc3)[C@@](C)(O1)[C@@H]1CC[C@@H](C)[C@H]1[C@@H]2OC(=O)/C=C/c1ccccc1 | 0.282 µM | 0.155 µM | 0.115 µM | – | 0.4 mg/kg | – | – | – | –
6 | CC(C)[C@@]12C[C@@H](OC(=O)COC(=O)/C=C/c3ccccc3)[C@@](C)(O1)[C@@H]1CC[C@@H](C)[C@H]1[C@@H]2OC(=O)/C=C/c1ccccc1 | 0.138 µM | 0.044 µM | 0.066 µM | – | 1 mg/kg | – | 38.7 ng/mL | – | –
7 | CC(C)[C@@]12C[C@@H](OC(=O)[C@H]3CO3)[C@@](C)(O1)[C@@H]1CC[C@@H](C)[C@H]1[C@@H]2OC(=O)/C=C/c1ccccc1 | 0.17 µM | 0.224 µM | 0.204 µM | – | – | – | – | – | –
8 | CC(C)=CC(=O)OCC(=O)O[C@@H]1C[C@]2(C(C)C)O[C@@]1(C)[C@@H]1CC[C@@H](C)[C@H]1[C@@H]2OC(=O)/C=C/c1ccccc1 | 0.38 µM | 0.178 µM | 0.24 µM | 1.25 µM | 0.4 mg/kg | – | 1.5 ng/mL | 15% | –
9 | CCCCCC(=O)OCC(=O)O[C@@H]1C[C@]2(C(C)C)O[C@@]1(C)[C@@H]1CC[C@@H](C)[C@H]1[C@@H]2OC(=O)/C=C/c1ccccc1 | 0.126 µM | 0.052 µM | 0.041 µM | – | 0.4 mg/kg | – | – | – | Active
10 | CC(C)[C@@]12C[C@@H](OC(=O)/C=C/c3ccccc3)[C@@](C)(O1)[C@@H]1CC[C@@H](C)[C@H]1[C@@H]2OC(=O)/C=C/c1ccccc1 | > 100 µM | > 100 µM | > 100 µM | – | – | – | – | – | –
